Source: patent publication US20240284792A1, “ORGANIC COMPOUND, LIGHT-EMITTING DEVICE, DISPLAY APPARATUS, AND ELECTRONIC DEVICE” (SEMICONDUCTOR ENERGY LABORATORY CO., LTD., priority 2023, published 2024)
Values after ≈ are worked out from the molar mass of the structure shown.

Experiment: Solubility test (water solubility) by LC-MS analysis
Format: physicochemical
Experimental: In the LC-MS analysis, liquid chromatography (LC) separation was carried out with ACQUITY UPLC manufactured by Waters Corporation, and MS analysis (mass spectrometry) was carried out with Xevo G2 Tof MS manufactured by Waters Corporation. Acquity UPLC BEH C8 (2.1×100 mm, 1.7 μm) was used as a column for the LC separation. Acetonitrile was used for Mobile Phase A and a 0.1% aqueous solution of formic acid was used for Mobile Phase B. The injection amount of the sample was 5.0 μL. Note that in the analysis, the wavelength of a photodiode array detector was set to 330 nm±1 nm.
In a 5-mL sample bottle, 1 mg of SFPy-hpp was put and 2 mL of N,N-dimethylformamide was added thereto. This mixture was irradiated with ultrasonic waves for five minutes. After it was confirmed that the solid was completely dissolved, this solution was diluted by 2.5 times with acetonitrile, whereby the concentration of the solution was adjusted to 200 mg/L. This solution was diluted with acetonitrile, whereby a solution with a concentration of 4 mg/L, a solution with a concentration of 2 mg/L, and a solution with a concentration of 0.2 mg/L were prepared. The prepared solutions were subjected to LC-MS analysis, and the peak area values derived from SFPy-hpp, which were obtained at the respective solution concentrations, were used to form calibration curves.
Next, the water solubility of SFPy-hpp was measured.
In a 5-mL sample bottle, 1 mg of SFPy-hpp was put and 1 mL of water was added thereto. This mixture was irradiated with ultrasonic waves for five minutes. This mixture was filtered through a membrane filter to remove the solid. The obtained solution was subjected to LC-MS analysis.

solubility in 1 mL of water (1 mg compound in 1 mL water, ultrasonic waves five minutes, membrane filtered, LC-MS with calibration curve): 0.00029 mg | solubility at 5 min (thermodynamic from solid, water, from calibration curve and LC-MS signal intensity, read-out: weight fraction of the water solubility): 0.29 µg/mL (≈ 0.546 µM) | water solubility (in words) (water, conclusion from LC-MS solubility test): extremely low water solubility
SMILES: c1cc(-c2ccc3c(c2)C2(c4ccccc4-c4ccccc42)c2ccccc2-3)nc(N2CCCN3CCCN=C32)c1 [SFPy-hpp, 1-[6-(9,9′-spirobi[9H-fluoren]-2-yl)pyridin-2-yl]-1,3,4,6,7,8-hexahydro-2H-pyrimido[1,2-a]pyrimidine]
